# Reference: patent publication US8772237B2, “Compositions and methods for counteracting effects of reactive oxygen species and free radicals” (Ischemix, Inc., priority 1999, dated 2014)
# Ends that are not written are not given here.
# Experiments:
# Type in all cases: cell-based
# [1] = system: SOD-1 mRNA; assay: RT-PCR upregulation of SOD-1 mRNA in rat primary myocyte cultures; conditions: rat primary myocytes, 3-hour incubation
# Description: Primary cultures of rat brain cortical cells were incubated with 100 ng/ml of peptide compound CMX-9236 for durations of 0 to 48 hours. mRNA was isolated from the cytoplasmic fraction of lysed cells according to standard methods (Angel et al., Cell 49:729-739, 1987). The RNA was incubated according to the RT-PCR protocol with two strands, 20 nucleotides long, one for the sense and one from the antisense strand. The sequences were selected to be unique for superoxide dismutase-1 (SOD-1), and to span one intron segment. […] The sequence of the two probe segments of the oligo dT segments for SOD are as follows: anti-sense strand, […] (SEQ ID NO:29), and sense strand, […] (SEQ ID NO:30). These span a sequence of 208 base pairs (bp) on the primary SOD sequence. The mixture was then treated with reverse transcriptase to obtain the cDNA according to standard PCR methods. The cDNA was then analyzed by electrophoresis and separated according to sequence lengths on a non-denaturing 5% polyacrylamide gel. The electrophoretically separated molecules were treated with ethidium bromide to stain double-stranded DNA fragments. […] The gels were then analyzed by a laser scanning fluorescence detector to quantitate the amount of messenger RNA for the extent of upregulation of SOD message and its time course of synthesis as a function of stimulation by CMX-9236. […]
# [2] = system: transcription factor AP-1; assay: Electrophoretic mobility shift assay (EMSA) for AP-1 activation in primary rat neurons / cortical cultures
# Description: Nuclear extracts for electrophoretic mobility shift assays (EMSAs) were prepared as described previously (Adams et al., J. Leukocyte Biol., 62: 865-873 (1997)) using 1.0-2.0×10^7 cells per sample. All buffers were freshly supplemented with dithiothreitol (DTT, 0.5 mM), protease inhibitors: PMSF (0.5 mM), chymostatin, peptstatin-A, aprotinin, antipain, leupeptin (each at 1 μg/ml), and phosphatase inhibitors: NaF (10 mM), ZnCl2 (1 mM), sodium orthovanadate (1 mM), and sodium pyrophosphate (5 mM). Aliquots of the final dialyzates were stored at −80° C. and discarded after use.
# AP-1 transcription factor activation was assayed using an electrophoretic mobility shift assay (EMSA), as described by Adams et al., J. Leukoc. Biol., 62:865-873 (1997)). Cultures of primary rat neurons (Cornell-Bell et al., Cell Calcium, 12: 185-204 (1991)) were stimulated for 3 hours with various concentrations (0, 1, 10, 100 ng/ml) of peptide CMX-9236. Nuclear extracts prepared as described above were separated by gel electophoresis on non-denaturing gels and subjected to the EMSA procedure. This EMSA used an AP-1 synthetic duplex probe (Angel, P., 1987, Cell 49:729-739) having the sequence 5′-[…] (SEQ ID NO:33) and its antisense copy (complement strand), which were end-labeled with P^32 using polynucleotide kinase and (γ-P^32)-ATP. For the EMSA reaction, the labeled probe (0.5 pmol) was mixed with 3 μg of nuclear extract protein in a solution containing 10 mM Tris-HCl, pH 7.5, 50 mM NaCl, 1 mM EDTA, 1 mM dithiothreitol, 5% glycerol, 0.02% β-mercaptoethanol, and 1 μg of poly-dI/dC (Pharmacia). Reaction mixtures were incubated at 25° C. for 20 minutes to allow complete complex formation by the duplex with its appropriate AP-1 protein. The mixture was then electrophoresed under non-denaturing conditions through 4% polyacrylamide gels in 0.5×TBE buffer (45 mM Trisma base, 45 mM boric acid, 1 mM EDTA). The gels were dried on 3 mm paper. Bands were visualized by autoradiography at −80° C. with one intensifying screen and quantified by laser densitometry. The upregulation of AP-1 and the activation and upregulation process of AP-1 was compared to control cultures.
# Primary cortical cell cultures were grown to confluence and used in in vitro cultures for determining the effects of various representative peptide compounds on upregulation of AP-1. […] Extracts were prepared from the nuclei isolated from the primary culture homogenates, purified, and analyzed for the presence of specific transcription factors using the electrophoretic mobility shift assay (EMSA) method. The binding of ^32P-labeled duplex DNA probes specific for activator protein-1 (AP-1) or nuclear factor κB (NF-κB) was analyzed and quantified by autoradiography. After a 3-hour incubation of the cultures with 1 ng/ml of the peptide CMX-9236 there was a 15-fold increase of AP-1 relative to […] control cultures. […] Thus, a small peptide compound that is less than 20 amino acids long can simulate the properties of large growth factors such as NGF and BDNF, which exist as dimers of protein chains with molecular weights of 13,259 and 13,500, respectively.
# [3] = system: superoxide dismutase-1 (SOD-1) mRNA; assay: RT-PCR upregulation of SOD-1 mRNA in rat primary cortical cell cultures; conditions: 100 ng/ml
# Description: The RT-PCR method (see, for example, Innis et al., PCR Protocols: A Guide to Methods and Applications, (Academic Press, San Diego, 1990)) was used to investigate the upregulation of the specific mRNA that codes for the enzyme superoxide dismutase (SOD).
# Primary cortical cultures were obtained by growing newborn rat brain cortical cells in Delbecco's modified Eagle medium supplemented with 25 μg/ml of gentamycin and 10% fetal calf serum. The cells were isolated from the E-21 cortex of rat brain, plated at a density of 1×10^5 per ml and grown to confluence within four to five days in an atmosphere containing air and 5% CO2 at 37° C. as described in Cornell-Bell et al., Science, 247: 470-473 (1990) and Cell Calcium, 12: 185-204 (1991). Cultures were grown in 20 ml flasks as a monolayer and then exposed to various concentrations of peptides for studies of the effects of peptides on upregulation of genes for SOD and CAT and on the transmigration of transcription factor AP-1 to cell nuclei.
# Primary cultures of rat brain cortical cells were incubated with 100 ng/ml of peptide compound CMX-9236 for durations of 0 to 48 hours. mRNA was isolated from the cytoplasmic fraction of lysed cells according to standard methods (Angel et al., Cell 49:729-739, 1987). The RNA was incubated according to the RT-PCR protocol with two strands, 20 nucleotides long, one for the sense and one from the antisense strand. The sequences were selected to be unique for superoxide dismutase-1 (SOD-1), and to span one intron segment. […] The sequence of the two probe segments of the oligo dT segments for SOD are as follows: anti-sense strand, […] (SEQ ID NO:29), and sense strand, […] (SEQ ID NO:30). These span a sequence of 208 base pairs (bp) on the primary SOD sequence. The mixture was then treated with reverse transcriptase to obtain the cDNA according to standard PCR methods. The cDNA was then analyzed by electrophoresis and separated according to sequence lengths on a non-denaturing 5% polyacrylamide gel. The electrophoretically separated molecules were treated with ethidium bromide to stain double-stranded DNA fragments. These were visualized by ultraviolet illumination and photographed. The gels were then analyzed by a laser scanning fluorescence detector to quantitate the amount of messenger RNA for the extent of upregulation of SOD message and its time course of synthesis as a function of stimulation by CMX-9236. Similar methods of analysis were used for other peptides.
sequence,measurement,setting,value
"KKDGDGDFAIDAPE [CMX-9236, uncapped peptide]",upregulation of SOD mRNA,[1]; 1 ng/ml,3 fold
same,upregulation of SOD-1 mRNA transcripts,[1]; 10-100 ng/ml,about 6 fold
same,fold-increase of AP-1,"[2]; 1 ng/ml, 3-hour incubation",15 fold
same,fold-increase of AP-1 (binding of DNA duplex probe),"[2]; 100 ng/ml, 3 hours",60 fold
same,time until SOD-1 mRNA stimulation returns to control levels,[3],≤ 24 h
same,upregulation of SOD-1 mRNA transcripts,"[3]; rat primary cortical cells, 3 hours incubation",9 fold
